Like-named read-outs stand apart in the source and are kept apart here. Where a SMILES comes first, the peptide text is derived from it.
Tests used:
E. coli = assay: microbe, parasite or virus in culture; type: cell-based, Escherichia coli; conditions: for MIC: Escherichia coli, 18 h, read-out: MIC, E. coli, MHB−; for Fold, E. coli: fold shift in MIC
Procedure: (§1) In the following experiments, bacterial cells were cultured in 96-well microtiter plates in cation-adjusted Mueller-Hinton Broth (MHB) for 18 h at 37° C. The main strains used were E. coli (K-12 BW25113) (placed in stationary incubator) and S. aureus (Newman Strain) (incubated at 250 r.p.m). Knockout strains (ΔtolcC and ΔychM) were used from the Keio knockout collection (Baba et al., Construction of Escherichia coli K-12 in-frame, single-gene knockout mutants: the Keio collection. Mol Syst Biol 2, 2006 0008, doi:10.1038/msb4100050 (2006)). For MIC determination and checkerboard analyses, Clinical & Laboratory Standards Institute (CLSI) protocol was used. […] DiSC3 loading of S. aureus cells was performed as previously described (Farha et al., Collapsing the proton motive force to identify synergistic combinations against Staphylococcus aureus. Chemistry & biology 20, 1168-1178, doi:10.1016/j.chembiol.2013.07.006 (2013)). CCCP concentration of 20 μM was used. pH adjustments were made by addition of HCl or NaOH. INT assay and ATP bioluminescence assays were performed as previously described (Farha et al., Collapsing the proton motive force to identify synergistic combinations against Staphylococcus aureus. Chemistry & biology 20, 1168-1178, doi:10.1016/j.chembiol.2013.07.006 (2013)). For chemical-genomic studies, the Keio library was grown overnight in cation-adjusted MHB broth, in 384-well plates. From these, treatment plates (25 mM sodium bicarbonate, or a sterile water control) were inoculated and grown for 15 hours at 37° C., in a stationary incubator. Data was normalized according to Mangat et al (Mangat et al., Rank ordering plate data facilitates data visualization and normalization in high-throughput screening. J Biomol Screen 19, 1314-1320, doi:10.1177/1087057114534298 (2014)), with gene products and GO terms mined from EcoCyc. The GFP promoter library (Keseler et al., EcoCyc: fusing model organism databases with systems biology. Nucleic Acids Res 41, D605-612, doi:10.1093/nar/gks1027 (2013)) was grown for 18 hours at ambient temperature with the same inoculation strategy as with the Keio collection. The analysis pipeline of Zaslaver et al (Zaslaver et al., A comprehensive library of fluorescent transcriptional reporters for Escherichia coli. Nat Methods 3, 623-628, doi:10.1038/nmeth895 (2006)) was used to generate maps of promoter activity, from which lists of promoters with increased or decreased activity were compiled.
(§2) Fold enhancement in MICs in the media supplemented with sodium bicarbonate is represented by a positive fold, whereas suppression of activity is represented by a negative fold.
(§3) The effect of sodium bicarbonate on the activity of additional antibacterial agents was investigated. Clinical isolates of various bacteria were obtained from the ATCC and the IHMA.
(§4) The effect of sodium bicarbonate on the activity of cationic antiseptic agents was investigated. Clinical isolates of various bacteria were obtained from the ATCC and the IHMA.

S. aureus = assay: microbe, parasite or virus in culture; conditions: for MIC: Staphylococcus aureus, read-out: MIC, S. aureus, MHB−; for Fold, S. aureus: fold shift in MIC
Procedure: as §1, §2, §3, §4

[1] = antibiotic agents, MHB in the absence of sodium bicarbonate
[2] = MHB in the absence of sodium bicarbonate
[3] = antiseptic agents, MHB in the absence of sodium bicarbonate
[4] = antiseptic agents, MHB in the presence of 25 mM sodium bicarbonate

| SMILES | MIC, E. coli, MHB+ (E. coli) | MIC, S. aureus, MHB+ (S. aureus) | MIC (S. aureus; 18 h) [µg/mL] | MIC (E. coli; [2]) [µg/mL] | other results |
| --- | --- | --- | --- | --- | --- |
| NCC[C@H](O)C(=O)N[C@@H]1C[C@H](N)[C@@H](O[C@H]2O[C@H](CN)[C@@H](O)[C@H](O)[C@H]2O)[C@H](O)[C@H]1O[C@H]1O[C@H](CO)[C@@H](O)[C@H](N)[C@H]1O [Amikacin] | 4 μg of antimicrobial agent/mL of buffer | 8 μg of antimicrobial agent/mL of buffer | 4 | – | MIC (E. coli; [1]): 4 µg/mL |
| CC1(C)S[C@@H]2[C@H](NC(=O)[C@H](N)c3ccc(O)cc3)C(=O)N2[C@H]1C(=O)O [Amoxicillin] | – | 1 | 0.25 | – | MIC (E. coli): 8 µg/mL |
| CC1(C)S[C@@H]2[C@H](NC(=O)[C@H](N)c3ccccc3)C(=O)N2[C@H]1C(=O)O [Ampicillin] | – | 8 | 1 | 16 | – |
| CN[C@@H]1[C@@H](O[C@H]2O[C@H](CO)[C@@H](N)[C@H](O)[C@H]2O)OC2C[C@@H](N)[C@@H](O[C@H]3[C@H](O)[C@@H](O)[C@H](N)C[C@@H]3N)OC2[C@@H]1O (stereo partly drawn) [Apramycin] | – | 32 | 16 | 32 | – |
| CC[C@H](C)[C@H](N)C1=N[C@H](C(=O)N[C@@H](CC(C)C)C(=O)N[C@H](CCC(=O)O)C(=O)N[C@H](C(=O)N[C@H]2CCCCNC(=O)[C@H](CC(N)=O)NC(=O)[C@@H](CC(=O)O)NC(=O)[C@H](Cc3cnc[nH]3)NC(=O)[C@@H](Cc3ccccc3)NC(=O)[C@H]([C@@H](C)CC)NC(=O)[C@@H](CCCN)NC2=O)[C@@H](C)CC)CS1 [Bacitracin] (HELM PEPTIDE1{[CC[C@H](C)[C@H](N)C1=N[C@H](C(=O)[*:2])CS1].L.[dE].I.K.[NCCC[C@@H](N[*:1])C(=O)[*:2]].I.[dF].H.[dD].N}$PEPTIDE1,PEPTIDE1,5:R3-11:R2$$$V2.0) | – | 64 | 32 | > 256 | – |
| CC[C@H](C)[C@@H]1NC(=O)[C@H](CCCNC(=N)N)NC(=O)[C@@H](NC(=O)[C@H](CC(C)C)NC(=O)[C@@H](N)CCCNC(=N)N)CSSC[C@@H](C(=O)N[C@@H](CCCNC(=N)N)C(=O)O)NC(=O)[C@H](C(C)C)NC(=O)[C@H](CCCNC(=N)N)NC(=O)[C@H]([C@@H](C)CC)NC(=O)[C@H](C(C)C)NC(=O)[C@H](C(C)C)NC1=O [Bactenesin] (HELM PEPTIDE1{R.L.C.R.I.V.V.I.R.V.C.R}$PEPTIDE1,PEPTIDE1,3:R3-11:R3$$$V2.0; N-terminus and C-terminus assumed; bridges inferred) | – | – | – | – | enhancement of antimicrobial activity in the presence of bicarbonate (E. coli): 256 fold; MIC in MHB (S. aureus; Newman, 18 h): 128 µg/mL; MIC in MHB + 25 mM bicarbonate (S. aureus; Newman, 18 h): 0.5 µg/mL |
| NC(=O)c1ccccc1 [Benzamide] | >128 μg of antimicrobial agent/mL of buffer | >128 μg of antimicrobial agent/mL of buffer | > 128 | – | MIC (E. coli; [1]): > 128 µg/mL |
| N[C@@H]1CCCCN(c2c(F)cc3c(=O)c(C(=O)O)cn(C4CC4)c3c2Cl)C1 [Besifloxacin] | – | 0.25 | 0.125 | 0.25 | effect of 25 mM sodium bicarbonate on antibacterial activity (E. coli): increased |
| N[C@@H](C(=O)N[C@@H]1C(=O)N2C(C(=O)O)=C(Cl)CS[C@H]12)c1ccccc1 [Cefaclor] | 4 μg of antimicrobial agent/mL of buffer | 8 μg of antimicrobial agent/mL of buffer | 2 | – | MIC (E. coli; [1]): 4 µg/mL |
| CCN1CCN(C(=O)N[C@@H](C(=O)N[C@@H]2C(=O)N3C(C(=O)O)=C(CSc4nnnn4C)CS[C@H]23)c2ccc(O)cc2)C(=O)C1=O [Cefoperazone] | – | 4 | 0.25 | 0.125 | – |
| CO/N=C(\C(=O)N[C@@H]1C(=O)N2C(C(=O)O)=C(COC(C)=O)CS[C@H]12)c1csc(N)n1 [Cefotaxime] | 8 μg of antimicrobial agent/mL of buffer | 2 μg of antimicrobial agent/mL of buffer | 0.5 | – | MIC (E. coli; [1]): 4 µg/mL |
| CO/N=C(\C(=O)N[C@@H]1C(=O)N2C(C(=O)O)=C(CSc3nc(=O)c(=O)[nH]n3C)CS[C@H]12)c1csc(N)n1 [Ceftriaxone] | – | 16 | 4 | 0.625 | – |
| CCCCCCCCCCCCCCCC[N+](C)(C)C.[Br-] [Cetrimodium bromide] | – | – | – | – | MIC, E. coli, MHB (E. coli; [3]): >128 μg of antimicrobial agent/mL of buffer; MIC, E. coli, MHB+ (E. coli; [4]): 32 μg of antimicrobial agent/mL of buffer; Fold, E. coli (E. coli; antiseptic agents): 4; MIC, S. aureus, MHB (S. aureus; [3]): 16 μg of antimicrobial agent/mL of buffer; MIC, S. aureus, MHB+ (S. aureus; [4]): 4 μg of antimicrobial agent/mL of buffer; Fold, S. aureus (S. aureus; antiseptic agents): 4 |
| O=C(N[C@H](CO)[C@H](O)c1ccc([N+](=O)[O-])cc1)C(Cl)Cl [Chloramphenicol] | – | 8 | 8 | 8 | effect of 25 mM sodium bicarbonate on antibacterial activity (E. coli): remained largely unchanged; effect of 25 mM sodium bicarbonate on antibacterial activity (S. aureus; S. aureus, result in words): remained largely unchanged |
| [H]/N=C(\N/C(=N/[H])NCCCCCCNC(=N)NC(=N)Nc1ccc(Cl)cc1)Nc1ccc(Cl)cc1 [Chlorhexidine] | 0.125 μg of antimicrobial agent/mL of buffer | 0.0625 μg of antimicrobial agent/mL of buffer | – | – | MIC, E. coli, MHB (E. coli): 0.5 μg of antimicrobial agent/mL of buffer; MIC, S. aureus, MHB (S. aureus): 0.5 μg of antimicrobial agent/mL of buffer |
| CC[C@H]1OC(=O)[C@H](C)[C@@H](O[C@H]2C[C@@](C)(OC)[C@@H](O)[C@H](C)O2)[C@H](C)[C@@H](O[C@@H]2O[C@H](C)C[C@H](N(C)C)[C@H]2O)[C@](C)(OC)C[C@@H](C)C(=O)[C@H](C)[C@@H](O)[C@]1(C)O [Clarithromycin] | 8 μg of antimicrobial agent/mL of buffer | 0.062 μg of antimicrobial agent/mL of buffer | 0.5 | – | MIC (E. coli; [1]): 64 µg/mL |
| CCC[C@@H]1C[C@@H](C(=O)N[C@@H]([C@H]2O[C@H](SC)[C@H](O)[C@@H](O)[C@H]2O)[C@H](C)Cl)N(C)C1 [Clindamycin] | 128 μg of antimicrobial agent/mL of buffer | 0.12 μg of antimicrobial agent/mL of buffer | 0.25 | – | MIC (E. coli; [1]): 128 µg/mL |
| Cc1onc(-c2ccccc2Cl)c1C(=O)N[C@@H]1C(=O)N2[C@@H]1SC(C)(C)[C@@H]2C(=O)O [Cloxacillin] | – | 0.5 | 0.031 | 256 | – |
| N=C(N)c1ccc(OCCCOc2ccc(C(=N)N)cc2Br)c(Br)c1.O=S(=O)(O)CCO.O=S(=O)(O)CCO [Dibrompropamidine diisetionate] | – | – | – | – | MIC, E. coli, MHB (E. coli; [3]): 64 μg of antimicrobial agent/mL of buffer; MIC, E. coli, MHB+ (E. coli; [4]): 16 μg of antimicrobial agent/mL of buffer; Fold, E. coli (E. coli; antiseptic agents): 4; MIC, S. aureus, MHB (S. aureus; [3]): 4 μg of antimicrobial agent/mL of buffer; MIC, S. aureus, MHB+ (S. aureus; [4]): 1 μg of antimicrobial agent/mL of buffer; Fold, S. aureus (S. aureus; antiseptic agents): 4 |
| CC[C@H]1OC(=O)[C@H](C)[C@@H](O[C@H]2C[C@@](C)(OC)[C@@H](O)[C@H](C)O2)[C@H](C)[C@@H](O[C@@H]2O[C@H](C)C[C@H](N(C)C)[C@H]2O)[C@](C)(O)C[C@@H](C)C(=O)[C@H](C)[C@@H](O)[C@]1(C)O [Erythromycin] | – | 1 | 32 | – | – |
| CC[C@H](C)[C@H](N)C(=O)N[C@@H](CC(C)C)C(=O)N1CCC[C@H]1C(=O)N[C@@H](Cc1c[nH]c2ccccc12)C(=O)N[C@@H](CCCCN)C(=O)N[C@@H](Cc1c[nH]c2ccccc12)C(=O)N1CCC[C@H]1C(=O)N[C@@H](Cc1c[nH]c2ccccc12)C(=O)N[C@@H](Cc1c[nH]c2ccccc12)C(=O)N1CCC[C@H]1C(=O)N[C@@H](Cc1c[nH]c2ccccc12)C(=O)N[C@@H](CCCNC(=N)N)C(=O)N[C@@H](CCCNC(=N)N)C(N)=O [Indolicidin] | – | – | – | – | enhancement of antimicrobial activity in the presence of bicarbonate (S. aureus; S. aureus, 25 mM sodium bicarbonate): 16 fold |
| Cc1ncc([N+](=O)[O-])n1CCO [Metronidazole] | – | – | > 128 | – | – |
| O=C([O-])O.[K+] [Potassium bicarbonate] | – | – | – | – | MIC of dirithromycin in the presence of the salt (E. coli; E. coli, salt at 25 mM, pH adjusted to 7.4): 4 µg/mL |
